Data: PMC5736175, “Nicotinic alpha 7 receptor agonists EVP-6124 and BMS-933043, attenuate scopolamine-induced deficits in visuo-spatial paired associates learning” (PLoS ONE, 2017)
“And” between values parts separate entries of the source, which are not always exact repeats. Identical values can stand only once.

Legend:
[1] = test system: scopolamine-treated cynomolgus monkeys; assay: Scopolamine-induced impairment of vsPAL task performance, treatment + scopolamine; type: in vivo, cynomolgus monkeys (Macaca Fasicularis); conditions: for Initial Correct, 3 Stimuli / Initial Correct, 4 Stimuli / Initial Correct, Overall Mean % Correct / Initial correct, 2 Stimuli / % Completion / Average Response Latency (Avg Rsp Lat) / Eventual Correct, 2 Stimuli / Eventual Correct, 3 Stimuli / Eventual Correct, 4 Stimuli / Eventual Correct, Overall Mean % Correct: im + Scopolamine
[2] = Plasma pharmacokinetics in satellite animals (LC-MS/MS), 60 min after i.m. dose; conditions: for concentration at 60 min: cynomolgus monkey, in vivo, nM total compound in plasma from satellite animals
Experimental: (§1) For all compounds, plasma pharmacokinetic studies were conducted in a separate cohort of cynomolgus monkeys (N = 2–3 subjects per dose) before beginning vsPAL testing to help guide dose selection. Blood samples were obtained with the animals awake and sitting in a primate chair.
(§2) Plasma concentrations of test compounds were determined using LC-MS/MS assays. In brief, 50 μL plasma and sample containing compounds was extracted by protein precipitation method with 150 μL acetonitrile containing an internal standard. A 5 μL sample of supernatant was injected into the LC-MS/MS system. Analytes were separated by reversed phase chromatography and detection of each analyte was achieved through selected reaction monitoring mode of mass spectrometry. Samples were quantified by calculated peak area ratio of analyte and internal standard against a calibration curve.

[3] = Plasma concentration in vsPAL subjects immediately after completion of testing (LC-MS/MS); conditions: for concentration at 69.8 min: cynomolgus monkey, in vivo
Experimental: as §1, with “chair. For most test sessions with BMS-933043 and EVP-6124, plasma samples were also taken from a subset of vsPAL subjects (N = 4–5) immediately after completion of testing (mean (SD) sample collection time = 69.8 (9.8) min post injection).” for “chair.”
as §2

[4] = BMS-933043 0.3 mg/kg, individual animals, 0.3 mg/kg
[5] = BMS-933043 1.0 mg/kg, group MEAN
[6] = BMS-933043 1.0 mg/kg, individual animals, 1 mg/kg
[7] = all doses of the study, for EVP-6124 study (1)
[8] = compound 0.03 mg/kg i.m. + Scopolamine
[9] = compound 0.10 mg/kg i.m. + Scopolamine
[10] = compound 0.30 mg/kg i.m. + Scopolamine
[11] = compound 1.00 mg/kg i.m. + Scopolamine
[12] = 0.03 mg/kg i.m., individual subjects
[13] = 0.10 mg/kg i.m., individual subjects
[14] = 0.30 mg/kg i.m., individual subjects
[15] = 1.00 mg/kg i.m., individual subjects

c1cn(-c2cc(NC3=NC[C@@]4(CN5CCC4CC5)O3)ncn2)cn1 [BMS-933043, (2R)-N-(6-(1H-imidazol-1-yl)-4-pyrimidinyl)-4'H-spiro[4-azabicyclo[2.2.2]octane-2,5'-[1, 3]oxazol]-2'-amine]
Initial Correct, 3 Stimuli [1, 4]: 80.0% and 100.0% and 60.0% and 10.0% and 90.0%
Initial Correct, 4 Stimuli [1, 4]: 60.0% and 40.0% and 50.0% and 30.0%
Initial Correct, Overall Mean % Correct [1, 4]: 80.0% and 73.3% and 83.3% and 30.0% and 60.0%
Initial correct, 2 Stimuli [1, 4]: 100.0% and 50.0% and 90.0%
% Completion [1, 5]: 71.6%
Average Response Latency (Avg Rsp Lat) [1, 5]: 2029.0 ms
Eventual Correct, 2 Stimuli [1, 5]: 100.0%
Eventual Correct, 3 Stimuli [1, 5]: 97.1%
Eventual Correct, 4 Stimuli [1, 5]: 65.7%
Eventual Correct, Overall Mean % Correct [1, 5]: 87.6%
Initial Correct, 3 Stimuli [1, 5]: 71.4%
Initial Correct, 4 Stimuli [1, 5]: 41.4%
Initial Correct, Overall Mean % Correct [1, 5]: 69.5%
Initial correct, 2 Stimuli [1, 5]: 95.7%
Eventual Correct, 2 Stimuli ([1]; BMS-933043 1.0 mg/kg, individual animals): 100.0%
% Completion [1, 6]: 72.7% and 100.0% and 68.1% and 56.9% and 46.1% and 57.8%
Average Response Latency (Avg Rsp Lat) [1, 6]: 2028.1 ms and 1536.5 ms and 1283.2 ms and 2484.6 ms and 1934.3 ms and 2639.0 ms and 2297.3 ms
Eventual Correct, 3 Stimuli [1, 6]: 90.0% and 100.0%
Eventual Correct, 4 Stimuli [1, 6]: 70.0% and 100.0% and 40.0% and 50.0% and 30.0%
Eventual Correct, Overall Mean % Correct [1, 6]: 86.7% and 96.7% and 80.0% and 83.3% and 76.7% and 90.0% and 100.0%
Initial Correct, 3 Stimuli [1, 6]: 50.0% and 80.0% and 90.0% and 70.0%
Initial Correct, 4 Stimuli [1, 6]: 40.0% and 60.0% and 20.0% and 30.0% and 80.0%
Initial Correct, Overall Mean % Correct [1, 6]: 63.3% and 76.7% and 60.0% and 86.7%
Initial correct, 2 Stimuli [1, 6]: 100.0% and 90.0%
Holm-Sidak Post-Hoc, Treatment+Scopolamine differs from Vehicle+Scopolamine: percent correct on initial attempt, 3-stimuli ([1]; all doses of the study): n.s.
Holm-Sidak Post-Hoc, Treatment+Scopolamine differs from Vehicle+Scopolamine: Choice Response Latency [1, 7]: n.s.
Holm-Sidak Post-Hoc, Treatment+Scopolamine differs from Vehicle+Scopolamine: Percent Task Completed [1, 7]: n.s.
Holm-Sidak Post-Hoc, Treatment+Scopolamine differs from Vehicle+Scopolamine: percent correct on initial attempt, 2-stimuli [1, 7]: n.s.
Holm-Sidak Post-Hoc, Treatment+Scopolamine differs from Vehicle+Scopolamine: percent correct on initial attempt, 4 stimuli [1, 7]: n.s.
Percent Correct on Initial Attempt (SEM), 2 stimuli [1, 8]: 90.0% (3.1%)
Percent Correct on Initial Attempt (SEM), 3 stimuli [1, 8]: 58.6% (8.0%)
Percent Correct on Initial Attempt (SEM), 4 stimuli [1, 8]: 38.3% (9.8%)
Percent Correct on Initial Attempt (SEM), 2 stimuli [1, 9]: 88.6% (3.4%)
Percent Correct on Initial Attempt (SEM), 3 stimuli [1, 9]: 75.7% (5.7%)
Percent Correct on Initial Attempt (SEM), 4 stimuli [1, 9]: 35.7% (8.1%)
Percent Correct on Initial Attempt (SEM), 2 stimuli [1, 10]: 91.4% (7.0%)
Percent Correct on Initial Attempt (SEM), 3 stimuli [1, 10]: 68.6% (11.2%)
Percent Correct on Initial Attempt (SEM), 4 stimuli [1, 10]: 45.0% (5.6%)
Percent Correct on Initial Attempt (SEM), 2 stimuli [1, 11]: 95.7% (2.0%)
Percent Correct on Initial Attempt (SEM), 3 stimuli [1, 11]: 71.4% (5.9%)
Percent Correct on Initial Attempt (SEM), 4 stimuli [1, 11]: 41.4% (8.3%)
dose/exposure range across which efficacy was retained ([1]; eventual accuracy, scopolamine vsPAL): ≥ 10 fold
Cohen's D values at maximally efficacious doses ([1]; large treatment effect sizes): > 8
nM total compound in plasma from satellite animals, 60 min [2, 12]: 16.6 nM and 18.4 nM
nM total compound in plasma from satellite animals, 60 min [2, 13]: 60.9 nM and 70.1 nM
nM total compound in plasma from satellite animals, 60 min [2, 14]: 145.0 nM and 280.0 nM and 133.0 nM
nM total compound in plasma from satellite animals, 60 min [2, 15]: 1100.0 nM
concentration at 60 min ([2]; 0.03 mg/kg, 0.03 mg/kg i.m., individual subjects): 20.1 nM
concentration at 60 min ([2]; 0.03 mg/kg, 0.03 mg/kg i.m., mean): 18.4 nM
concentration at 60 min ([2]; 0.1 mg/kg, 0.10 mg/kg i.m., individual subjects): 66.6 nM
concentration at 60 min ([2]; 0.1 mg/kg, 0.10 mg/kg i.m., mean): 65.9 nM
concentration at 60 min ([2]; 0.3 mg/kg, 0.30 mg/kg i.m., mean): 186 nM
concentration at 60 min ([2]; 1 mg/kg, 1.00 mg/kg i.m., individual subjects): 739 nM
concentration at 60 min ([2]; 1 mg/kg, 1.00 mg/kg i.m., mean): 920 nM
nM total compound in plasma post session [3, 12]: 14.6 nM and 11.9 nM and 13.1 nM
nM total compound in plasma post session [3, 13]: 37.9 nM and 51.3 nM and 45.6 nM
nM total compound in plasma post session [3, 14]: 156 nM and 134 nM and 143 nM
nM total compound in plasma post session [3, 15]: 414 nM and 530 nM and 413 nM
concentration at 69.8 min ([3]; 0.03 mg/kg, nM total compound in plasma post session, 0.03 mg/kg i.m., individual subjects): 13.4 nM
concentration at 69.8 min ([3]; 0.03 mg/kg, nM total compound in plasma post session, 0.03 mg/kg i.m., mean 69.8 min post injection, group mean): 13.3 nM
concentration at 69.8 min ([3]; 0.1 mg/kg, nM total compound in plasma post session, 0.10 mg/kg i.m., individual subjects): 56.3 nM
concentration at 69.8 min ([3]; 0.1 mg/kg, nM total compound in plasma post session, 0.10 mg/kg i.m., mean 69.8 min post injection, group mean): 47.8 nM
concentration at 69.8 min ([3]; 0.3 mg/kg, nM total compound in plasma post session, 0.30 mg/kg i.m., individual subjects): 125 nM
concentration at 69.8 min ([3]; 0.3 mg/kg, nM total compound in plasma post session, 0.30 mg/kg i.m., mean 69.8 min post injection, group mean): 140 nM
concentration at 69.8 min ([3]; 1 mg/kg, nM total compound in plasma post session, 1.00 mg/kg i.m., individual subjects): 614 nM
concentration at 69.8 min ([3]; 1 mg/kg, nM total compound in plasma post session, 1.00 mg/kg i.m., mean 69.8 min post injection, group mean): 493 nM
concentration at 69.8 min ([3]; 1 mg/kg, plasma concentration at which efficacy was lost, scopolamine vsPAL model): 493 nM
concentration at 69.8 min ([3]; mean plasma concentration at which improved eventual accuracy was observed, experimental subjects on completion of behavioral testing, efficacious doses): 13.3 to 140 nM
